Target: T1, glucocerebrosidase (Gcase) (Homo sapiens, UniProt P04062)
T1 sequence (P04062 40-536): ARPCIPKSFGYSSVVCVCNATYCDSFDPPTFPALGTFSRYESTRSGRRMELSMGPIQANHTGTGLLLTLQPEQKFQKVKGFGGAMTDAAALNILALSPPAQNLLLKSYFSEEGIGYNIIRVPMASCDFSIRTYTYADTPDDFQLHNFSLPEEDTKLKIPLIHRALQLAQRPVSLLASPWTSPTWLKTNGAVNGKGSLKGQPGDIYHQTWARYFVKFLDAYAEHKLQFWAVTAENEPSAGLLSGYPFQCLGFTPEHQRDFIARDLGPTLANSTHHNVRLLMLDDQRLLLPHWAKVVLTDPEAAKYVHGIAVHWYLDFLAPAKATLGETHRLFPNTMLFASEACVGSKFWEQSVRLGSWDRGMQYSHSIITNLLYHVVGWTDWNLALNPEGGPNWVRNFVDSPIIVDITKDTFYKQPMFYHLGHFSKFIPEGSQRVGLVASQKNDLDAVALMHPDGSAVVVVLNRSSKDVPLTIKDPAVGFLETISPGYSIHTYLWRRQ
Assay: Glucocerebrosidase (Gcase) activation assay, 4-methylumbelliferyl-beta-D-glucopyranoside substrate, with saposin C
Assay type: biochemical
Details: 10 nM GCase, 100 nM saposin C, pH 4.7
Description: The ability of exemplary compounds to activate glucocerebrosidase (Gcase) was measured.
A 484 μL aliquot of a 1.0 mg/mL solution of phosphatidylserine (PS) (Sigma P7769) in chloroform was evaporated under a stream of nitrogen for 1 hour. The lipid film was dissolved over 4 minutes of vigorous vortexing in 40 mL of 176 mM K2HPO4/50 mM citric acid (pH 4.7) containing 7.5 μL of triton X-100, resulting in a mixed micellar preparation with a composition of 0.32 mM triton and 0.37 mol % PS. 4-Methylumbelliferyl-beta-D-glucopyranoside (ACROS-337025000) was dissolved in the micellar solution to a final concentration of 2 mM for use as the reaction substrate.
Test compounds were diluted to the desired concentrations with dimethylsulfoxide (DMSO) from 10 mM stocks, and 0.41 μL of the DMSO compound mixture was added to 100 μL of micellar solution containing 10 nM GCase and 100 nM saposin C (Enzo ALX-201-262-C050). Pre-incubation was allowed to occur for 30 minutes at room temperature, after which the reaction was initiated by combining 25 μL of substrate solution with 25 μL of compound/GCase/saposin mixture. The reaction proceeded for 15 minutes at room temperature and was stopped by adding 150 μL of 1M glycine, pH 12.5. The endpoint of the reaction was monitored by measuring fluorescence intensity (excitation: 365 nm; emission: 440 nm) on a SpectraMax i3 instrument (Molecular Devices). Test compounds were screened at 1.0 and 0.1 μM final concentration, and subsequent 8-point dose response curves were obtained using 3-fold dilutions from a maximum final concentration of 5 μM.
For experiments in which the test compound was used at a concentration of 1.0 μM, the symbol “+” indicates less than 30% Gcase activation; the symbol “++” indicates Gcase activation in the range of 30% up to 60%; and the symbol “+++” indicates Gcase activation greater than 60%. For experiments in which the test compound was used at a concentration of 0.1 μM, the symbol “*” indicates less than 10% Gcase activation; the symbol “**” indicates Gcase activation in the range of 10% up to 20%; and the symbol “***” indicates greater than 20% Gcase activation.

Structure (SMILES) | Percent Gcase Activation 0.1 μM Test Compound | Percent Gcase Activation 1 μM Test Compound
Cc1cc(C)n2ncc(C(=O)Nc3ccc(-c4cocn4)cc3)c2n1 [III-10] | ** (Gcase activation in the range of 10% up to 20%) | +++ (Gcase activation greater than 60%)
Cc1cc(C)n2ncc(C(=O)Nc3nc4ccccc4[nH]3)c2n1 [III-28] | * (less than 10% Gcase activation) | + (less than 30% Gcase activation)
Cc1cc(C)n2ncc(C(=O)Nc3ccc(-c4cccs4)cc3)c2n1 [III-39] | *** (greater than 20% Gcase activation) | +++ (Gcase activation greater than 60%)
Cc1cc(C)n2ncc(C(=O)Nc3ccc(-n4ccnc4)cc3)c2n1 [III-6] | * (less than 10% Gcase activation) | + (less than 30% Gcase activation)
CCCCCO[C@H]1CC[C@H](NC(=O)c2cnn3c(C)cc(C)nc23)CC1 [III-59] | ** (Gcase activation in the range of 10% up to 20%) | +++ (Gcase activation greater than 60%)
Cc1cc(C)n2ncc(C(=O)Nc3ccc(Oc4ccccc4)cc3)c2n1 [III-5] | *** (greater than 20% Gcase activation) | ++ (Gcase activation in the range of 30% up to 60%)
Cc1cc(C)n2ncc(C(=O)Nc3ccc(-c4cccs4)nc3)c2n1 [III-20] | *** (greater than 20% Gcase activation) | +++ (Gcase activation greater than 60%)
Cc1cc(C)n2ncc(C(=O)Nc3ccc(-c4ncc[nH]4)cc3)c2n1 [III-30] | * (less than 10% Gcase activation) | + (less than 30% Gcase activation)
Cc1cc(C)n2ncc(C(=O)Nc3ccc(-c4cnn(C)c4)nc3)c2n1 [III-23] | * (less than 10% Gcase activation) | + (less than 30% Gcase activation)
Cc1cc(C)n2ncc(C(=O)NC(C)(C)c3ccc(F)cc3F)c2n1 [III-70] | ** (Gcase activation in the range of 10% up to 20%) | +++ (Gcase activation greater than 60%)
COCC#Cc1ccc(NC(=O)c2cnn3c(C)cc(C)nc23)cc1 [III-4] | ** (Gcase activation in the range of 10% up to 20%) | +++ (Gcase activation greater than 60%)
Cc1cc(C)n2ncc(C(=O)Nc3cc(-c4ccccc4)on3)c2n1 [III-12] | * (less than 10% Gcase activation) | + (less than 30% Gcase activation)
Cc1cc(C)n2ncc(C(=O)Nc3ccc4[nH]c(C)cc4c3)c2n1 [III-40] | * (less than 10% Gcase activation) | + (less than 30% Gcase activation)
Cc1cc(C)n2ncc(C(=O)Nc3ccc(-c4cocn4)nc3)c2n1 [III-19] | * (less than 10% Gcase activation) | + (less than 30% Gcase activation)
Cc1cc(C)n2ncc(C(=O)Nc3ccc(-c4ccncc4)cc3)c2n1 [III-56] | * (less than 10% Gcase activation) | + (less than 30% Gcase activation)
Cc1cc(C)n2ncc(C(=O)Nc3ccc(-c4ncco4)cc3)c2n1 [III-11] | ** (Gcase activation in the range of 10% up to 20%) | +++ (Gcase activation greater than 60%)
Cc1cc(C)n2ncc(C(=O)Nc3ccc(N=[N+]=[N-])cc3)c2n1 [III-38] | * (less than 10% Gcase activation) | ++ (Gcase activation in the range of 30% up to 60%)
Cc1cc(C)n2ncc(C(=O)N[C@H](C)c3ccc(F)cc3)c2n1 [III-65] | * (less than 10% Gcase activation) | ++ (Gcase activation in the range of 30% up to 60%)
Cc1cc(C)n2ncc(C(=O)Nc3ccc(CCC(=O)O)cc3)c2n1 [III-36] | * (less than 10% Gcase activation) | + (less than 30% Gcase activation)
Cc1cc(C)n2ncc(C(=O)Nc3ccc4c(c3)CCC4)c2n1 [IV-5] | ** (Gcase activation in the range of 10% up to 20%) | +++ (Gcase activation greater than 60%)
C#C[C@H]1CC[C@H](NC(=O)c2cnn3c(C)cc(C)nc23)CC1 [III-14] | * (less than 10% Gcase activation) | + (less than 30% Gcase activation)
Cc1cc(C)n2ncc(C(=O)Nc3ccc(-c4cnsc4)cc3)c2n1 [III-16] | ** (Gcase activation in the range of 10% up to 20%) | +++ (Gcase activation greater than 60%)
Cc1cc(C)n2ncc(C(=O)Nc3ccc4[nH]ncc4c3)c2n1 [III-41] | * (less than 10% Gcase activation) | + (less than 30% Gcase activation)
Cc1cc(C)n2ncc(C(=O)Nc3ccc4cn[nH]c4c3)c2n1 [III-42] | * (less than 10% Gcase activation) | + (less than 30% Gcase activation)
C#Cc1ccc(NC(=O)c2cnn3c(NC)cc(C)nc23)cc1 [III-78] | ** (Gcase activation in the range of 10% up to 20%) | + (less than 30% Gcase activation)
Cc1cc(Cl)n2ncc(C(=O)NC(C)(C)c3ccc(Cl)cc3)c2n1 [III-68] | ** (Gcase activation in the range of 10% up to 20%) | +++ (Gcase activation greater than 60%)
Cc1cc(C)n2ncc(CNc3ccc(-c4cocn4)nc3)c2n1 [III-24] | * (less than 10% Gcase activation) | + (less than 30% Gcase activation)
Cc1cc(C)n2ncc(C(=O)Nc3ccc(-c4ccncc4)nc3)c2n1 [III-21] | * (less than 10% Gcase activation) | + (less than 30% Gcase activation)
Cc1cc(C)n2ncc(C(=O)Nc3ccc4c(c3)OCO4)c2n1 [IV-4] | * (less than 10% Gcase activation) | ++ (Gcase activation in the range of 30% up to 60%)

The remaining lines, values ahead:

Percent Gcase Activation 0.1 μM Test Compound | Percent Gcase Activation 1 μM Test Compound | Structure (SMILES)
* (less than 10% Gcase activation) | +++ (Gcase activation greater than 60%) | Cc1cc(C)n2ncc(C(=O)N[C@@H](C)c3ccccc3F)c2n1 [III-60]
* (less than 10% Gcase activation) | + (less than 30% Gcase activation) | Cc1cc(C)n2ncc(C(=O)Nc3ccc(C#CCN(C)C)cc3)c2n1 [IV-2]
* (less than 10% Gcase activation) | + (less than 30% Gcase activation) | C#Cc1ccc(NCc2cnn3c(C)cc(C)cc23)cc1 [III-74]
* (less than 10% Gcase activation) | +++ (Gcase activation greater than 60%) | CO[C@H]1CC[C@@H](C(C)(C)NC(=O)c2cnn3c(C)cc(C)nc23)CC1 [III-72]

From patent publication US11932645B2, “Substituted pyrazolo[1,5-a]pyrimidines and their use in the treatment of medical disorders” (Bial—R&D Investments, S.A., priority 2014, dated 2024)
